For the assay, the system named is Streptococcus pyogenes (ATCC# 97-03 14289). Put plainly: Anti-microbial screen (growth inhibition, OD 570 nm). Format: cell-based. The note with it: ATCC97, compounds at 170 μg/ml, Todd Hewitt Broth, read at 4 hrs. As for the experimental part: Streptococcus pyogenes (ATCC# 97-03 14289) were grown in Todd Hewitt Broth (THB) (Difco Laboratories #0492-17-6) overnight until they reached an optical density of (OD=0.636@ 570 nm) by reading 0.1 ml in a 96 well microtiter plate in a Molecular Devices Thermomax. This preparation was kept frozen as stocks in 30% v/v glycerol in 1.5 ml aliquots at −70 C° until used. Prior to screening, 1.5 ml aliquots were thawed and diluted into 50 ml THB. 200 μl of this dilution was added to 92 wells of microtiter plate. To three wells THB (200 μl) was added to serve as a blank and a sterility control. Test compounds in DMSO and appropriate concentrations of DMSO were added to Growth/Solvent Controls at 0 time. Plates were read at 0 time at 570 nm in the Molecular Devices plate reader to obtain compounds correction factors for insoluble or colored compounds. Plates were read again at 4 hrs.
Compounds were assayed at a concentration of 170 μg/ml. Percent inhibition for each compound was calculated using the following formulae:
Color correct=(O.D. 0 hr−Blank 0 hr)−(Solvent Control 0 hr−Blank 0 hr)
% Inhibition=100−(O.D. test compound 4 hr−Blank 4 hr−color correct) divided by (O.D. growth/solvent control 4 hr−Blank 4 hr)
As to `CCN1CCCC1CNC(=O)c1ccc2c(c1)nc1n2CC(=O)Nc2ccc(NCCN3CCOCC3)cc2-1` (stereo not drawn) [6000#00002], the inhibition (as a rule, the share of the control response that was lost under treatment) at 170 µg/mL came to 96.3%.
As for `CCN1CCCC1CNC(=O)c1ccc2c(c1)nc1n2CC(=O)Nc2ccc(NCCN(C)C)cc2-1` (stereo not drawn) [6000#00007], at 170 µg/mL the inhibition was 95.2%.
Take `CCN1CCCC1CNC(=O)c1ccc2c(c1)nc1n2CC(=O)Nc2ccc(NCCCN3CCOCC3)cc2-1` (stereo not drawn) [6000#00010]: testing at 170 µg/mL gave an inhibition of 95.7%.
Then `CCN1CCCC1CNC(=O)c1ccc2c(c1)nc1n2CC(=O)Nc2ccc(N(C)CCN(C)C)cc2-1` (stereo not drawn) [6000#00015], with 96.3%; and `O=C1Cn2c(nc3ccc(Cl)cc32)-c2cc(NC3CCCCCC3)ccc2N1` [6000#04048], with 95%.
For `CC1CC(Nc2ccc3c(c2)-c2nc4ccc(Cl)cc4n2CC(=O)N3)CC(C)(C)C1` (stereo not drawn) [6000#04080], at 170 µg/mL the inhibition was 95.3%.
`CC1CCCCN1CCCNc1ccc2c(c1)-c1nc3ccc(Cl)cc3n1C(C)C(=O)N2` (stereo not drawn) [6000#08102] returned an inhibition at 170 µg/mL of 95.1%.
The result for `CN(CCc1ccccc1)c1ccc2c(c1)-c1nc3cc(C(=O)NC4CC(C)(C)NC(C)(C)C4)ccc3n1[C@@H](CCC(N)=O)C(=O)N2` [6000#17560] reads 98.6%; that for `CC1(C)CC(NC(=O)c2ccc3c(c2)nc2n3[C@@H](CCC(N)=O)C(=O)Nc3ccc(NCc4cccc(C(F)(F)F)c4)cc3-2)CC(C)(C)N1` [6000#17584], 97.2%.
The result for `CN(C)CCN(C)c1ccc2c(c1)-c1nc3ccccc3n1[C@H](Cc1ccccc1)C(=O)N2` [6000#36335] reads 100%; that for `CN(C)CCN(C)c1ccc2c(c1)-c1nc3ccc(Cl)cc3n1[C@H](Cc1ccccc1)C(=O)N2` [6000#36655], 96.8%.
`CN(C)CCCNc1ccc2c(c1)-c1nc3ccc(Cl)cc3n1[C@H](Cc1ccccc1)C(=O)N2` [6000#36687] had an inhibition at 170 µg/mL of 96.1%.
The result for `CN(C)CCCN(C)c1ccc2c(c1)-c1nc3cc(C(=O)N4CCC(C(N)=O)CC4)ccc3n1[C@@H](CC1CCCCC1)C(=O)N2` [6000#38375] reads 95.1%.
`COCCN(CCOC)C(=O)c1ccc2c(c1)nc1n2[C@@H](CC2CCCCC2)C(=O)Nc2ccc(N(C)CCN(C)C)cc2-1` [6000#38735] returned an inhibition at 170 µg/mL of 96.7%.
On to `CSCCCNC(=O)c1ccc2c(c1)nc1n2[C@@H](CC2CCCCC2)C(=O)Nc2ccc(N(C)CCN(C)C)cc2-1` [6000#39135], for which 170 µg/mL produced 98.1% inhibition.
Then `CN(C)CCCN(C)c1ccc2c(c1)-c1nc3cc(C(=O)NCCN4CCOCC4)ccc3n1[C@@H](CC1CCCCC1)C(=O)N2` [6000#39255], with 95.2%; and `CCOC(=O)CCNC(=O)c1ccc2c(c1)nc1n2[C@@H](Cc2ccc(Cl)cc2)C(=O)Nc2ccc(N(C)CCN(C)C)cc2-1` [6000#45135], with 97.8%; and `CN(C)CCCN(C)c1ccc2c(c1)-c1nc3cc(C(=O)NCCCN4CCCC4=O)ccc3n1[C@@H](Cc1ccc(Cl)cc1)C(=O)N2` [6000#46455], with 96.8%.
For the molecule `COCCN(CCOC)C(=O)c1ccc2c(c1)nc1n2[C@@H](Cc2ccc(Cl)cc2)C(=O)Nc2ccc(N(C)CCN(C)C)cc2-1` [6000#46895], 170 µg/mL produced 96.1% inhibition.
The result for `CC(=O)NCCNC(=O)c1ccc2c(c1)nc1n2[C@@H](Cc2ccc(Cl)cc2)C(=O)Nc2ccc(NCCCN3CCCCC3C)cc2-1` (stereo partly drawn) [6000#47222] reads 95.7%; that for `CSCCCNC(=O)c1ccc2c(c1)nc1n2[C@@H](Cc2ccc(Cl)cc2)C(=O)Nc2ccc(N(C)CCCN(C)C)cc2-1` [6000#47335], 96.2%.
`CN(C)CCN(C)c1ccc2c(c1)-c1nc3cc(C(F)(F)F)ccc3n1[C@@H](Cc1c[nH]c3ccccc13)C(=O)N2` [6000#52815]: testing at 170 µg/mL gave an inhibition of 98.8%.
Then `CN(C)CCN(C)c1ccc2c(c1)-c1nc3cc(Br)ccc3n1[C@@H](CCCCNC(=O)C(F)(F)F)C(=O)N2` [6000#56655], with 97.8%; and `CN(C)CCCNc1ccc2c(c1)-c1nc3cc(Br)ccc3n1C(CCCCNC(=O)C(F)(F)F)C(=O)N2` (stereo not drawn) [6000#56687], with 96.8%; and `CN(C)CCCN(C)c1ccc2c(c1)-c1nc3cc(Br)ccc3n1C(CCCCNC(=O)C(F)(F)F)C(=O)N2` (stereo not drawn) [6000#56695], with 95.8%.
On to `CCN(CC)CCN(C)c1ccc2c(c1)-c1nc3cc(C(F)(F)F)ccc3n1C(CCCCNC(=O)C(F)(F)F)C(=O)N2` (stereo not drawn) [6000#56919], for which testing at 170 µg/mL gave an inhibition of 95.8%.
The molecule `CN(C)CCCNc1ccc2c(c1)-c1nc3cc(C(F)(F)F)ccc3n1C(CCCCNC(=O)C(F)(F)F)C(=O)N2` (stereo not drawn) [6000#56927] registered an inhibition at 170 µg/mL of 96.3%.
The result for `CN(C)CCCN(C)c1ccc2c(c1)-c1nc3cc(C(F)(F)F)ccc3n1C(CCCCNC(=O)C(F)(F)F)C(=O)N2` (stereo not drawn) [6000#56935] reads 95.8%; that for `CCN1CCCC1CNc1ccc2c(c1)-c1nc3cc(C(F)(F)F)ccc3n1C(CCCCNC(=O)C(F)(F)F)C(=O)N2` (stereo not drawn) [6000#56957], 97.4%; that for `CCOC(=O)C1CCN(c2ccc3c(c2)-c2nc4ccc(Cl)cc4n2C(CCCCNC(=O)C(F)(F)F)C(=O)N3)CC1` (stereo not drawn) [6000#57085], 96.7%.
`CCOCCNc1ccc2c(c1)-c1nc3cc(C(=O)Nc4nccs4)ccc3n1C(CCCNC(=N)N)C(=O)N2` (stereo not drawn) [6000#57258] registered an inhibition at 170 µg/mL of 96.9%.
Then `CCCCNc1ccc2c(c1)-c1nc3cc(C(=O)NCCCCCC(=O)OC)ccc3n1C(CCCNC(=N)N)C(=O)N2` (stereo not drawn) [6000#57343], with 100%; and `CCOC(=O)CCNC(=O)c1ccc2c(c1)nc1n2C(CCCNC(=N)N)C(=O)Nc2ccc(NC3CCN(Cc4ccccc4)C3)cc2-1` (stereo not drawn) [6000#57389], with 97.3%.
For `CCOC(=O)CCNC(=O)c1ccc2c(c1)nc1n2C(CCCNC(=N)N)C(=O)Nc2ccc(Sc3ccccn3)cc2-1` (stereo not drawn) [6000#57425], the inhibition at 170 µg/mL amounted to 97.8%.
In turn, `CCCCNc1ccc2c(c1)-c1nc3cc(C(=O)N4CCCC4)ccc3n1C(CCCNC(=N)N)C(=O)N2` (stereo not drawn) [6000#57503] had an inhibition at 170 µg/mL of 97.4%.
Then `CCN(CC)c1ccc2c(c1)-c1nc3cc(C(=O)N4CCCC4)ccc3n1C(CCCNC(=N)N)C(=O)N2` (stereo not drawn) [6000#57519], with 100%; and `CCN(CC)c1ccc2c(c1)-c1nc3cc(C(=O)N(C)C4CCN(C)CC4)ccc3n1C(CCCNC(=N)N)C(=O)N2` (stereo not drawn) [6000#57999], with 95.1%; and `CCCCNc1ccc2c(c1)-c1nc3cc(C(=O)NCCO)ccc3n1C(CCCNC(=N)N)C(=O)N2` (stereo not drawn) [6000#58223], with 97%.
Regarding `CCOC(=O)C1CCCN(C(=O)c2ccc3c(c2)nc2n3C(CCCNC(=N)N)C(=O)Nc3ccc(N(C)CCc4ccccn4)cc3-2)C1` (stereo not drawn) [6000#58414], testing at 170 µg/mL gave an inhibition of 98%.
Then `CCOC(=O)C1CCCN(C(=O)c2ccc3c(c2)nc2n3C(CCCNC(=N)N)C(=O)Nc3ccc(N4CCCC(C(=O)OCC)C4)cc3-2)C1` (stereo not drawn) [6000#58437], with 100%; and `CCOC(=O)C1CCN(c2ccc3c(c2)-c2nc4cc(C(=O)N5CCCC(C(=O)OCC)C5)ccc4n2C(CCCNC(=N)N)C(=O)N3)CC1` (stereo not drawn) [6000#58445], with 97%.
For `CCOC(=O)C1CCCN(C(=O)c2ccc3c(c2)nc2n3C(CCCNC(=N)N)C(=O)Nc3ccc(N4CCSCC4)cc3-2)C1` (stereo not drawn) [6000#58475], at 170 µg/mL the inhibition was 99.1%.

These data come from patent publication US6515122B1, “Tetracyclic benzimidazole derivatives and combinatorial libraries thereof” (Lion Bioscience AG, priority 1999, dated 2003).
